Laboratory results from patent publication US20080227635A1, “Dicyano Alkanoic Acid Amides for Combating Animal Pests” (BASF Aktiengesellschaft, priority 2005, published 2008).

Legend:
Assay type in all cases: in vivo
[1] = test system: Vetch aphid (Megoura viciae); assay: Activity against Vetch aphid (sprayed bean leaf disks); settings: foliar, 144 h, 2500 ppm solution in 1:3 DMSO:water, leaf disks sprayed with 2.5 μl, adult aphids, 6 days, untreated controls 0%
Protocol: 4. Activity against Vetch aphid (Megoura viciae)
The active compounds were formulated as a 2500 ppm solution in 1:3 DMSO:water. Bean leaf disks were placed into microtiterplates filled with 0.8% agar-agar and 2.5 ppm OPUS™. The leaf disks were sprayed with 2.5 μl of the test solution and 5 to 8 adult aphids were placed into the microtiterplates which were then closed and kept at 22-24° C. and 35-45% under fluorescent light for 6 days. Mortality was assessed on the basis of vital, reproduced aphids. Tests were replicated 2 times.

[2] = test system: Boll weevil (Anthonomus grandis); assay: Activity against Boll weevil (eggs sprayed in microtiterplates); settings: 2500 ppm solution in 1:3 DMSO:water, eggs sprayed with 20 μl, 3 to 5 days, untreated controls 0%
Protocol: 1. Activity against Boll weevil (Anthonomus grandis)
The active compounds were formulated as a 2500 ppm solution in 1:3 DMSO:water. 10 to 15 eggs were placed into microtiterplates filled with 2% agar-agar in water and 300 ppm formaline. The eggs were sprayed with 20 μl of the test solution, the plates were sealed with pierced foils and kept at 24-26° C. and 75-85% humidity with a day/night cycle for 3 to 5 days. Mortality was assessed on the basis of the remaining unhatched eggs or larvae on the agar surface and/or quantity and depth of the digging channels caused by the hatched larvae. Tests were replicated 2 times.

[3] = test system: yellowfever mosquito (Aedes aegyptii); assay: Activity via glass contact (treated glass vials); settings: 10 ppm in acetone, 0.5 ml per glass vial, 22° C., untreated controls 0%
From the text: 9. Activity against Argentine ant (Linepithema humile), harvester ant (Pogonomyrmex californicus), acrobat ant (Crematogaster spp.), carpenter ant (Camponotus floridanus), fire ant (Solenopsis invicta), house fly (Musca domestica), stable fly (Stomoxys calcitrans), flesh fly (Sarcophaga sp.), yellowfever mosquito (Aedes aegyptii), house mosquito (Culex quinquefasciatus), malaria mosquito (Anopheles albimanus), German cockroach (Blattella Germanica), cat flea (Ctenocephalides felis), and brown dog tick (Rhipicephalus sanguineus) via glass contact
Glass vials were treated with 0.5 ml of a solution of 10 ppm of the active ingredient in acetone and allowed to dry. Insects or ticks were placed into each vial together with some food and moisture supply.

| SMILES | mortality at 2500 ppm [1] | mortality at 2500 ppm [2] | mortality at 10 ppm [3] |
| --- | --- | --- | --- |
| CN(C(=O)CC(C#N)(C#N)CCC(F)(F)F)C(C)(C)C [I-1, 3,3-dicyano-6,6,6-trifluoro-hexanoic acid tert-butyl-methyl-amide] | > 75% | > 75% |  |
| CN(C(=O)CC(C#N)(C#N)CCC(F)(F)F)C(C)(C)C#N [I-2, 3,3-dicyano-6,6,6-trifluoro-hexanoic acid (cyano-dimethyl-methyl)-methyl-amide] |  |  | > 75% |
